# From ChEMBL document CHEMBL5518181, “Studies of antibacterial activity (in vitro and in vivo) and mode of action for des-acyl tridecaptins (DATs)” (Eur J Med Chem, 2024)
# Calls of active or inactive are those of the source. The rule behind the calls is not given here.
# How the values were obtained:
# [1] = system: Lipopolysaccharide (LPS); test: Binding affinity to Escherichia coli O55:B5 LPS assessed as dissociation constant by ITC analysis; type: subcellular
# [2] = Aqueous solubility of compound at pH 7.4; type: physicochemical
# [3] = system: Proteus mirabilis; test: Antibacterial activity against Proteus mirabilis ATCC 7002 assessed as inhibition of bacterial growth incubated for 18 hrs; type: functional; settings: read-out: MIC100
# [4] = target: T1, Cytochrome P450 1A2 (Homo sapiens, UniProt P05177); test: Induction of CYP1A2 (unknown origin); type: ADME
# T1 sequence (P05177 whole entry): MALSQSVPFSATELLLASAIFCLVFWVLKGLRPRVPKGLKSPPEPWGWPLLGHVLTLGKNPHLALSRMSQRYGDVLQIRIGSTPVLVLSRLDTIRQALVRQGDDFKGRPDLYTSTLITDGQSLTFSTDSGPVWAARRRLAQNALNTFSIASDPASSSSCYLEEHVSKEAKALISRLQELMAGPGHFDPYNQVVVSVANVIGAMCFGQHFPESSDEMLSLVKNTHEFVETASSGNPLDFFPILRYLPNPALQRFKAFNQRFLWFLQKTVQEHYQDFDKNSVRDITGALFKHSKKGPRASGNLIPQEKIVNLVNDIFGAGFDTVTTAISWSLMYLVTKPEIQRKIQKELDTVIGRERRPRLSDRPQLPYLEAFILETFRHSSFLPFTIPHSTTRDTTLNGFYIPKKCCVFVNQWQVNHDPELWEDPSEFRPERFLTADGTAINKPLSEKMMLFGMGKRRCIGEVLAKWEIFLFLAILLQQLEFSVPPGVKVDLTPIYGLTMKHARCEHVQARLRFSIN
# [5] = Cmax in Swiss mouse plasma at 10 mg/kg, iv administered as single bolus dose and measured upto 24 hrs by LC-MS/MS analysis; type: ADME, organism-based
# [6] = Binding affinity to gram negative bacterial lipid II assessed as dissociation constant by ITC analysis; set-up: species or system Bacteria
# [7] = system: Acinetobacter baumannii; test: Antibacterial activity against wild-type Acinetobacter baumannii ATCC 19606 assessed as inhibition of bacterial growth incubated for 20 hrs; type: functional; settings: read-out: MIC100
# [8] = Drug uptake in Escherichia coli ATCC 25922 at 10 uM incubated for 10 mins by LC-MS/MS analysis; type: ADME
# [9] = Cmax in Swiss mouse liver at 10 mg/kg, iv administered as single bolus dose and measured upto 24 hrs by LC-MS/MS analysis; type: ADME, organism-based
# [10] = system: Klebsiella pneumoniae; test: Antibacterial activity against Klebsiella pneumoniae ATCC 13883 assessed as inhibition of bacterial growth incubated for 18 hrs in presence of 2 mM CaCl2; type: functional, organism-based
# [11] = system: Escherichia coli; test: Antibacterial activity against Escherichia coli ATCC 25922 assessed as inhibition of bacterial growth incubated for 18 hrs in presence of 25 mM bicarbonate; type: functional, organism-based
# [12] = Hepatotoxicity in cryopreserved rat primary hepatocytes; type: toxicity, cell-based, Hepatocyte
# [13] = Genotoxicity in human TK6 cells measured after 3 to 24 hrs; type: toxicity, cell-based; settings: time 3-24 hrs
# [14] = target: Cytochrome P450 3A4 (Homo sapiens, UniProt P08684); test: Induction of CYP3A4 (unknown origin); type: ADME
# [15] = system: Escherichia coli; test: Antibacterial activity against Escherichia coli ATCC 35218 infected in Swiss albino mouse septicemia model assessed as log10 reduction in bacterial burden below stasis in spleen at 20 mg/kg, iv administered twice every 2 hrs and measured after 5 hrs; type: functional
# [16] = system: Escherichia coli; test: Antibacterial activity against Escherichia coli Swiss 7 harboring mcr-1 gene assessed as inhibition of bacterial growth incubated for 18 hrs; type: functional; settings: read-out: MIC100
# [17] = system: Escherichia coli; test: Antibacterial activity against Escherichia coli ATCC BAA-2469 expressing NDM-1 assessed as inhibition of bacterial growth incubated for 18 hrs; type: functional; settings: read-out: MIC100
# [18] = AUClast in Swiss mouse plasma at 10 mg/kg, iv administered as single bolus dose and measured upto 24 hrs by LC-MS/MS analysis; type: ADME, organism-based
# [19] = system: Klebsiella pneumoniae; test: Antibacterial activity against Klebsiella pneumoniae ATCC BAA-2470 expressing NDM-1 assessed as inhibition of bacterial growth incubated for 18 hrs; type: functional; settings: read-out: MIC100
# [20] = system: Staphylococcus aureus; test: Antibacterial activity against […] assessed as inhibition of bacterial growth incubated for 18 hrs; type: functional; settings: ATCC 29213, read-out: MIC100
# [21] = system: Escherichia coli; test: Antibacterial activity against Escherichia coli ATCC 25922 infected in cyclophosphamide immunosuppressed mouse thigh infection model at 30 to 90 mg/kg, iv administered every 2 hrs starting from 1 hr post infection and measured 25 hrs post infection; type: functional, organism-based; settings: dose 30-90 mg/kg, time 24.0 hrs
# [22] = system: Enterobacter cloacae; test: Antibacterial activity against Enterobacter cloacae ATCC 23355 assessed as inhibition of bacterial growth incubated for 18 hrs; type: functional; settings: read-out: MIC100
# [23] = system: Klebsiella pneumoniae; test: Antibacterial activity against wild-type Klebsiella pneumoniae ATCC 13883 assessed as inhibition of bacterial growth incubated for 18 hrs in presence of 50% heat inactivated human serum; type: functional; settings: read-out: MIC100
# [24] = system: Escherichia coli; test: Antibacterial activity against colistin resistant Escherichia coli NCTC 13846 harboring mcr-1 gene assessed as inhibition of bacterial growth incubated for 18 hrs; type: functional; settings: read-out: MIC100
# [25] = Hydrophobicity of compound assessed as %MeCN at peak elution by RP-HPLC analysis; type: physicochemical
# [26] = system: Escherichia coli; test: Antibacterial activity against wild-type Escherichia coli ATCC 25922 assessed as inhibition of bacterial growth incubated for 18 hrs in presence of 50% heat inactivated human serum; type: functional; settings: read-out: MIC100
# [27] = system: Klebsiella pneumoniae; test: Antibacterial activity against Klebsiella pneumoniae ATCC 13883 assessed as inhibition of bacterial growth incubated for 18 hrs in presence of 150 mM NaCl; type: functional, organism-based
# [28] = system: Escherichia coli; test: Antibacterial activity against Escherichia coli ATCC 35218 infected in Swiss albino mouse septicemia model assessed as log10 reduction in bacterial burden below stasis in kidney at 20 mg/kg, iv administered twice every 2 hrs and measured after 5 hrs; type: functional
# [29] = system: Escherichia coli; test: Antibacterial activity against Escherichia coli Swiss 9 harboring mcr-1 gene assessed as inhibition of bacterial growth incubated for 18 hrs; type: functional; settings: read-out: MIC100
# [30] = system: Staphylococcus aureus; test: Antibacterial activity against wild type Staphylococcus aureus USA300 assessed as inhibition of bacterial growth incubated for 18 hrs; type: functional; settings: read-out: MIC100
# [31] = system: Klebsiella pneumoniae; test: Antibacterial activity against Klebsiella pneumoniae ATCC 43816 infected in cyclophosphamide immunosuppressed Swiss albino mouse respiratory infection model at 30 to 90 mg/kg, iv administered every 2 hrs starting from 1 hr post infection and measured 5 hrs post infection; type: functional, organism-based; settings: dose 30-90 mg/kg, time 4.0 hrs
# [32] = system: Escherichia coli; test: Antibacterial activity against Escherichia coli panel (100 strains) assessed as inhibition of bacterial growth; type: functional
# [33] = system: Klebsiella pneumoniae; test: Antibacterial activity against Klebsiella pneumoniae ATCC 13883 assessed as inhibition of bacterial growth incubated for 18 hrs in presence of 2 mM MgCl2; type: functional, organism-based
# [34] = system: Pseudomonas aeruginosa; test: Antibacterial activity against wild-type Pseudomonas aeruginosa PAO1 assessed as inhibition of bacterial growth incubated for 24 hrs; type: functional; settings: read-out: MIC100
# [35] = system: Escherichia coli; test: Antibacterial activity against wild-type Escherichia coli ATCC 25922 assessed as inhibition of bacterial growth incubated for 18 hrs; type: functional; settings: read-out: MIC100
# [36] = Toxicity in naive mouse at 5 to 15 mg/kg, iv administered as single dose every 4 hrs for 24 hrs; type: organism-based; settings: in vivo, dose 5-15 mg/kg
# [37] = Clearance in rat microsomes; type: ADME, Microsome
# [38] = Chemical stability of compound in benzylamine; type: physicochemical
# Chain of Cytochrome P450 3A4 (P08684 whole entry): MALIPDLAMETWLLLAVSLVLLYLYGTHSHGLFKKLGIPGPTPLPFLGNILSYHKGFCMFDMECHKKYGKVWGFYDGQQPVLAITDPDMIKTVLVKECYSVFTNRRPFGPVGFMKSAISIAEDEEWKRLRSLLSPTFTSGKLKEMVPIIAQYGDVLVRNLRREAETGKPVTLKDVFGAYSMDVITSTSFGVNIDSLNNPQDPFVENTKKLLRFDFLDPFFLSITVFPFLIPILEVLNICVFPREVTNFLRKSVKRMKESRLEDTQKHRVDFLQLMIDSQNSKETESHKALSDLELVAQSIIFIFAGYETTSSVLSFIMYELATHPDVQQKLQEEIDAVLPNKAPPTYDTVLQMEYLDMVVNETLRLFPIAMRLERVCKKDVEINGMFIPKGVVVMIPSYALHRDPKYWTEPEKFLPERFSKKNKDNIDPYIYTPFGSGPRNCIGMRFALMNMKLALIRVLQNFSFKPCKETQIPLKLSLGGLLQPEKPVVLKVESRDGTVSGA
compound,measurement,setting,value
CC[C@H](C)[C@@H](NC(=O)[C@@H](NC(=O)[C@H](CCC(=O)O)NC(=O)[C@H](Cc1ccccc1)NC(=O)[C@@H](CCN)NC(=O)[C@H](CCN)NC(=O)[C@H](CO)NC(=O)[C@@H](Cc1c[nH]c2ccccc12)NC(=O)[C@@H](CO)NC(=O)CNC(=O)[C@@H](CCN)NC(=O)[C@H](NC(=O)[C@H](C)N)C(C)C)C(C)C)C(=O)N[C@@H](C)C(=O)O,Kd,[1],35.7 µM
same,solubility,[2],> 1000 µg/mL
same,MIC,[3],> 64 µg/mL
same,Activity,[4],Not Active
same,Cmax,[5],166 µg/mL
same,Kd,[6],2.6 µM
same,MIC,[7],32 µg/mL
same,Drug uptake,[8],Active
same,Cmax,[9],5.65 µg/mL
same,Activity,[10],Active
same,Activity,[11],Active
same,Activity,[12],Non-Toxic
same,Activity,[13],Non-Toxic
same,Activity,[14],Not Active
same,log(activity),[15],1
same,MIC,[16],16 µg/mL
same,MIC,[17],8 µg/mL
same,AUC(0-t) at 24 h,[18],82500 ng·h/mL
same,MIC,[19],8 µg/mL
same,MIC,[20],> 64 µg/mL
same,Activity,[21],Active
same,MIC,[22],2 µg/mL
same,MIC,[23],1 µg/mL
same,MIC,[24],2 µg/mL
same,MeCN percentage at peak elution,[25],40.3%
same,MIC,[26],2 µg/mL
same,Activity,[27],Active
same,log(activity),[28],~2
same,MIC,[29],8 µg/mL
same,MIC,[30],> 32 µg/mL
same,Activity,[31],Active
same,MIC50,[32],4 µg/mL
same,MIC90,[32],8 µg/mL
same,Activity,[33],Active
same,MIC,[34],64 µg/mL
same,MIC,[35],4 µg/mL
same,Activity,[36],Non-Toxic
same,microsomal CLint,[37],19 µL/min/mg
same,Stability,[38],Stable
